The subject of data set [1] is murine red blood cells (mRBCs). Nature of the data set: Hemolysis assay. Type of data set: cell-based. The following applies: 32 g/mL as printed, 37° C. How it is done:
The cells were then washed using PBS (3×) by spinning at 1,000 rpm for 7 min. After washing, mRBCs were counted using a hemacytometer and diluted in PBS to 5×10^7 cells/mL. All the tested compounds were diluted (32 μg/mL and 8 μg/mL) in PBS in Eppendorf tubes (500 μL volume) and 100 μL were added to each of the columns of the 96-well plate except for column 1. A positive control (1% Triton-X®, TX), a negative control (DMSO), and wells with no mRBCs to account for any background absorbance were used in the 96-well plate. After the addition of the compounds to the plate, 100 μL of mRBCs were added to each well and plates were incubated at 37° C. for 30 min. The plates were then spun at 1,000 rpm for 10 min till the mRBCs settle at the bottom of the plates. 100 μL of supernatant was then transferred to a new 96-well plate and the absorbance at 500 nm was read using a spectrophotometer (SpectraMax M5). Percent hemolysis was calculated using the following equation after subtraction of the background absorbance.
To test the safety of the compounds, they were for exampled for hemolytic effect on murine red blood cells (FIG. 7).

The subject of data set [2] is all 43 strains of A. baumannii (41 CDC strains and 2 ATCC strains). Nature of the data set: MIC value statistics for all A. baumannii strains. Format: cell-based, Acinetobacter baumannii. The conditions noted are these: of 43 A. baumannii strains. In short, it runs like this:
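Broth microdilution in MH broth against CDC AR Isolate Bank and ATCC strains. Inoculum from overnight MH plates (37 °C), suspended to OD600 ~0.5, then diluted 1:1000 into serial twofold compound dilutions. Sterile and growth controls included per row.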

The subject of data set [3] is human embryonic kidney cells (HEK-293). Nature of the data set: Mammalian cytotoxicity assay (resazurin). The following applies: HEK-293, 32 μg/mL (printed 32 g/mL for 3e), 24 h.
The test system of a further data set is S. aureus ATCC 25923. Nature of the data set: MIC determination. Format: cell-based. The following applies: Staphylococcus aureus, ATCC25923; Table 4; read-out: MIC S. Aureus ATCC 25923.
The subject of another data set is E. cloacae ATCC 13047. Nature of the data set: MIC determination. Type of data set: cell-based. The conditions noted are these: Enterobacter cloacae, ATCC13047; Table 4; read-out: MIC E. cloacae ATCC 13047.
In a further data set the test system is B. anthracis Sterne F32. Nature of the data set: microbe, parasite or virus in culture. Type of data set: cell-based. The following applies: Bacillus anthracis, STERNEF32, read-out: MIC B. anthracis Sterne F32.
For another data set, the system named is K. pneumoniae ATCC 27736. Nature of the data set: MIC determination. Format: cell-based. The following applies: Klebsiella pneumoniae, ATCC27736; Table 3; read-out: MIC K. pneumoniae ATCC 27736.
Data set [4] relates to Ab ATCC BAA1605 (strain J, multidrug-resistant). Nature of the data set: MIC determination. Format: cell-based. The following applies: Acinetobacter baumannii. The gist of the method:
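Broth double-dilution MIC in Mueller-Hinton broth, 96-well plates, at least in duplicate. Inoculum: colonies grown overnight at 37 °C on MH plates, suspended to OD600 ~0.5 and diluted 1:1000 into serially doubly diluted compound.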

The subject of a further data set is E. coli ATCC BAA 2469. Nature of the data set: MIC determination. Format: cell-based. The following applies: Escherichia coli, BAA2469; Table 3.
The subject of data set [5] is K. pneumoniae ATCC BAA 1705. Nature of the data set: MIC determination. Format: cell-based. The conditions noted are these: Klebsiella pneumoniae, BAA1705; Table 3.
In data set [6] the test system is S. epidermidis ATCC 12228. Nature of the data set: MIC determination. Format: cell-based. The conditions noted are these: Staphylococcus epidermidis, ATCC12228; Table 4; read-out: MIC S. epidermidis ATCC 12228.
The test system of data set [7] is all 41 multidrug-resistant Ab strains (#273-313) from the CDC and FDA AR Bank. Nature of the data set: MIC determination, panel statements. Type of data set: cell-based. The conditions noted are these: Acinetobacter baumannii; Table 2 note; almost all of the 41 strains; read-out: MIC values against almost all strains. How it is done: All bacterial strains listed above were stored at −80° C. All strains were streaked on Mueller-Hinton (MH) plates and allowed to grow at 37° C. overnight. Enough colonies were scraped from the plate and suspended in MH broth with vortexing to reach an attenuance at 600 nm (OD600) of ˜0.5. The resulting culture was diluted 1:1000 and added to the prepared serially doubly diluted compound solutions in 96-well plates. For M. smegmatis, a 1:100 dilution of the bacteria was done in MH. All MIC values were determined using 96-well plates with low evaporation seals at least in duplicate. For each row, one well was reserved for sterile control (which consisted of 200 μL of MH medium) and another well was reserved for growth control (which consisted of 100 μL of MH medium seeded with 100 μL of bacterial culture).
Then all 46 compounds were tested against a broad panel of all 41 Ab strains from the CDC and FDA Antibiotic Resistance (AR) Isolate Bank (Table 2; data shown for 2 representative compounds), which were all highly multidrug-resistant strains, including those resistant to colistin. […] The activity of the monohydrazides was not dependent on the extent (number of resistance mutations) or severity (antibiotic MIC) of resistance. All conclusions made from Table 1 remained valid for all compounds against these 41 additional Ab strains. […]

The next data set has as its system S. enterica ATCC 14028. Nature of the data set: MIC determination. Type of data set: cell-based. The conditions noted are these: Salmonella enterica, ATCC14028; Table 4; read-out: MIC S. enterica ATCC 14028.
The test system of another data set is Ab ATCC 19606 (strain I). Nature of the data set: MIC determination (double dilution, Mueller-Hinton broth). Format: cell-based, Acinetobacter baumannii. The following applies: Acinetobacter baumannii, ATCC19606; Table 1; control strain; read-out: MIC Ab ATCC 19606.
For a further data set, the system named is P. aeruginosa ATCC 27853. Nature of the data set: MIC determination. The following applies: Pseudomonas aeruginosa, ATCC27853; Table 3; read-out: MIC P. aeruginosa ATCC 27853. Format: cell-based.
The next data set deals with Y. pestis CO92. Nature of the data set: microbe, parasite or virus in culture. Format: cell-based. The conditions noted are these: Yersinia pestis, CO92, read-out: MIC Y. pestis CO92.
A further data set has as its system M. smegmatis. Nature of the data set: MIC determination. Type of data set: cell-based, Mycobacterium smegmatis. The conditions noted are these: Mycolicibacterium smegmatis; Table 4.

In brackets after ≈: the same amount, converted by molar mass. Where two headings read alike, the source gives them in different places.

As a reminder, the inhibition of growth is the percentage by which the read-out fell short of the control. Low values mean a weak effect, high ones a strong effect. `O=C(NNc1cccc(F)c1)c1ccc2ccccc2n1` [Compound 12a]: the hemolysis in data set [1] was found to be 20%. Moreover, in [2], the “number of compound/strain combinations with MIC value 0.25 μg/mL” value was found to be 8, the “number of compound/strain combinations with MIC value 0.5 μg/mL” value is recorded as 21 and the “number of compound/strain combinations with MIC value 1 μg/mL” value came to 14. In [3], this compound registered an inhibition of growth of 40%.
As for `NC[C@H]1O[C@H](O[C@H]2[C@H](O)[C@@H](O[C@H]3O[C@H](CO)[C@@H](O)[C@H](N)[C@H]3O)[C@H](N)C[C@@H]2N)[C@H](O)[C@@H](O)[C@@H]1O` [KAN, kanamycin, reference compound], the MIC in the data set on S. aureus ATCC 25923 is 0.63 µg/mL (≈ 1.3 µM); in the data set with E. cloacae ATCC 13047, 1.25 µg/mL (≈ 2.58 µM); in the data set on B. anthracis Sterne F32, greater than 160 µg/mL; in the data set on K. pneumoniae ATCC 27736, 4 µg/mL (≈ 8.26 µM); in [4] (Table 1, multidrug-resistant strain, read-out: MIC Ab ATCC BAA 1605), 10 µg/mL (≈ 20.6 µM); in data set [4] (Table 3, positive control strain, read-out: MIC A. Baumannii ATCC BAA 1605) it was 32 µg/mL (≈ 66 µM). Further, the MIC is greater than 128 µg/mL in the data set on E. coli ATCC BAA 2469; greater than 128 µg/mL in data set [5]; 0.63 µg/mL (≈ 1.3 µM) in data set [6]; greater than 10 µg/mL in data set [7]; 2.5 µg/mL (≈ 5.16 µM) with S. enterica ATCC 14028; 5 µg/mL (≈ 10.3 µM) in the data set with Ab ATCC 19606 (strain I). Also, the MIC in the data set on P. aeruginosa ATCC 27853 is greater than 128 µg/mL; with Y. pestis CO92 it was 2.5 µg/mL (≈ 5.16 µM); against M. smegmatis, no more than 0.03 µg/mL.

The values above are taken from patent US20260041683A1, “Compounds with Anti-Acinetobacter Baumannii Activity” (University of Kentucky Research Foundation, priority 2022, published 2026).
